{"source": "paper PMC5116089", "about": "“Sulfheme formation during homocysteine S-oxygenation by catalase in cancers and neurodegenerative diseases” (Nature Communications, 2016)", "key": {"[1]": {"molecular_target": "T1, Bovine liver catalase (Bos taurus, UniProt P00432)", "T1 construct": "Bovine liver catalase was also purchased from Sigma-Aldrich; purchased Sigma-Aldrich; host or cells: bovine liver", "T1 sequence (P00432 2-527 limits assumed)": "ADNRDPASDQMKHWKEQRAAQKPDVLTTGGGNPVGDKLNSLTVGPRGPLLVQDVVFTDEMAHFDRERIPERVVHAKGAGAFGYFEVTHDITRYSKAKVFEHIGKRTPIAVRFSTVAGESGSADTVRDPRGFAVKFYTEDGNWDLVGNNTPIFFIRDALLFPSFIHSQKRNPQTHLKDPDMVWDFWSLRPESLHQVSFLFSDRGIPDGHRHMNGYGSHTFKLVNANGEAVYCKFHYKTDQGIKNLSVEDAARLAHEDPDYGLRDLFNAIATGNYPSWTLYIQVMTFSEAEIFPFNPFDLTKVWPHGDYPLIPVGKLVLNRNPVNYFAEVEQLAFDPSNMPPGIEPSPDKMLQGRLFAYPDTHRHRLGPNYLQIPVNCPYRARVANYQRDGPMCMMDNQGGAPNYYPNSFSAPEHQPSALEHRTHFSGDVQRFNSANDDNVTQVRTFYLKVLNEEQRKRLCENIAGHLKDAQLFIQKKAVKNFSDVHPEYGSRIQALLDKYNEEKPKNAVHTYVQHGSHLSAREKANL", "assay": "Catalase activity (H2O2 disappearance at 240 nm) as a function of thiol concentration", "type": "biochemical", "conditions": "read-out: relative IC50 (CAT activity)", "description": "(§1) CAT activity was measured on an Uvikon 941 spectrophotometer equipped with a temperature controlled water bath (±1 °C) by following the disappearance of H2O2 at 240 nm over 30–120 s at 25 °C. Catalase activity was calculated based on the rate of decomposition of hydrogen peroxide, which is proportional to the reduction of the absorbance at 240 nm. Experiments were carried out in a 3 ml quartz cuvette containing 11.7 mM H2O2 in 50 mM KPi, pH 7.4±1 mM DTPA and the reaction was initiated by adding 0.3–0.6 pmoles of CAT. The effect of biological thiols on the activity of CAT under physiological conditions was determined from a solution of CAT (30–60 nM) preincubated at 25 °C for at least 120 min as a function thiol concentration (0–40 mM for HCys and Cys, 0–100 mM for GSH) in 50 mM KPi, pH 7.4, 1 mM DTPA. Control experiments (biological thiols alone) were also performed in parallel. In each case, 10 μl of the reaction mixture (biological thiols±CAT) was added to the cuvette containing the H2O2 solution to initiate the reaction. Similarly, the effect of biological thiols on the activity of CAT under pathological conditions was determined from a solution of CAT (30–60 nM) containing a 2.124±0.386 molar excess of iron that was preincubated with various concentrations of thiols (0–1 mM) for at least 120 min at 25 °C in 50 mM KP at pH 7.4. The relative half inhibitory concentration (IC50) values were obtained by plotting the relative activity of CAT (A, in per cent) as a function of the concentration of thiol-compounds (RSH) and by fitting the data with the following four parameter logistic equation: A=Amin+(Amax−Amin)/(1+([RSH]/IC50)^n), where Amax is the maximal activity of CAT (constrained at 100%), Amin is the minimum activity achieved at saturating concentration of RSH and n is the Hillslope that characterizes the slope of the curve at its midpoint. The inactivation rate (kinact, min^−1) was extracted from the time course of the inactivation of CAT bioactivity using a fixed concentration of HCys. Accordingly, a solution of CAT (3.5–5 μM) was incubated with 2 mM L-HCys in 50 mM KPi, pH 7.4, 1 mM DTPA. Aliquots (10 μl) were taken at intervals (0–480 min), diluted 1:50 in 50 mM KPi, pH 7.4, 1 mM DTPA and assayed for CAT activity as described above. Similar experiments were performed in the presence of DMPO, 5,5-dimethyl-1,3-cyclohexanedione (dimedone) or SOD at a final concentration of 100 mM, 4 mM or 40 U, respectively. kinact values were obtained by plotting the relative activity of CAT (A, in per cent) as a function of the incubation time and the data were fitted with an exponential decay function: A=A0+ΔA × e^−kinact × t, with A0 and ΔA (A0+ΔA=100%) the residual activity and the percentage of CAT inhibition when t→∞, respectively. The effect of NaSH on the consumption of H2O2 in cell lysates was determined from a solution of cell lysates (0.5–3 mg ml^−1) incubated on ice with various concentrations of NaSH (0–200 μM). The disappearance of H2O2 was then followed at 240 nm for 2–5 min at 25 °C after the addition of 20–25 μl of the reaction mixture in a 3 ml cuvette containing 11.7 mM H2O2 in 50 mM KPi, pH 7.4. The relative half inhibitory concentration (IC50) values for NaSH were obtained by plotting the relative rate of disappearance of H2O2 (ΔA240 nm/min) as a function of the concentration of NaSH and by fitting the data with an hyperbolic decay equation. All the experiments were performed at least in triplicate."}, "[2]": {"molecular_target": "T1, Bovine liver catalase", "assay": "Time course of catalase inactivation by HCys (activity test)", "type": "biochemical", "conditions": "CAT + 2 mM HCys, 1 mM DTPA, pH 7.4, with the additive named (DMPO 100 mM, dimedone 4 mM, SOD 40 U); n=2±s.d.", "description": "as §1, with “Similar experiments were performed in the presence of DMPO, 5,5-dimethyl-1,3-cyclohexanedione (dimedone) or SOD at a final concentration of 100 mM, 4 mM or 40 U, respectively. kinact values were obtained by plotting the relative activity of CAT (A, in per cent) as a function of the incubation time and the data were fitted with an exponential decay function: A=A0+ΔA × e^−kinact × t, with A0 and ΔA (A0+ΔA=100%) the residual activity and the percentage of CAT inhibition when t→∞, respectively.” left out, “The disappearance of H2O2 was then followed at 240 nm for 2–5 min at 25 °C after the addition of 20–25 μl of the reaction mixture in a 3 ml cuvette containing 11.7 mM H2O2 in 50 mM KPi, pH 7.4. The relative half inhibitory concentration (IC50) values for NaSH were obtained by plotting the relative rate of disappearance of H2O2 (ΔA240 nm/min) as a function of the concentration of NaSH and by fitting the data with an hyperbolic decay equation. All the experiments were performed at least in triplicate.” left out"}, "[3]": {"test_system": "crypt and surface epithelial cells", "assay": "H2O2 consumption in cell lysates as a function of NaSH concentration", "type": "biochemical, mice", "conditions": "read-out: relative IC50 (rate of H2O2 consumption)", "description": "(§2) CAT activity was measured on an Uvikon 941 spectrophotometer equipped with a temperature controlled water bath (±1 °C) by following the disappearance of H2O2 at 240 nm over 30–120 s at 25 °C. Catalase activity was calculated based on the rate of decomposition of hydrogen peroxide, which is proportional to the reduction of the absorbance at 240 nm. Experiments were carried out in a 3 ml quartz cuvette containing 11.7 mM H2O2 in 50 mM KPi, pH 7.4±1 mM DTPA and the reaction was initiated by adding 0.3–0.6 pmoles of CAT. The effect of biological thiols on the activity of CAT under physiological conditions was determined from a solution of CAT (30–60 nM) preincubated at 25 °C for at least 120 min as a function thiol concentration (0–40 mM for HCys and Cys, 0–100 mM for GSH) in 50 mM KPi, pH 7.4, 1 mM DTPA. Control experiments (biological thiols alone) were also performed in parallel. […] Similarly, the effect of biological thiols on the activity of CAT under pathological conditions was determined from a solution of CAT (30–60 nM) containing a 2.124±0.386 molar excess of iron that was preincubated with various concentrations of thiols (0–1 mM) for at least 120 min at 25 °C in 50 mM KP at pH 7.4. […] The effect of NaSH on the consumption of H2O2 in cell lysates was determined from a solution of cell lysates (0.5–3 mg ml^−1) incubated on ice with various concentrations of NaSH (0–200 μM). […]"}, "[4]": {"test_system": "Hek 293T cells", "assay": "H2O2 consumption in cell lysates as a function of NaSH concentration", "type": "biochemical", "conditions": "read-out: relative IC50 (rate of H2O2 consumption)", "description": "as §2"}, "[5]": {"conditions": "+1 mM DTPA (physiological conditions), 50 mM phosphate buffer pH 7.4, 25 °C, n=3±s.d."}, "[6]": {"conditions": "iron 55–145 nM, −DTPA (pathological conditions), 50 mM phosphate buffer pH 7.4, 25 °C, n=3±s.d."}}, "note": "Read-outs that look alike come from different tables or passages of the source.", "data": [{"smiles": "N[C@@H](CS)C(=O)O", "note": "[Cys, cysteine]", "values": [{"measurement": "IC50", "setting": "[1]; [5]", "result": "590 ± 70", "unit": "µM"}, {"measurement": "IC50", "setting": "[1]; iron 55–145 nM, + 0.2 mM DTPA", "result": "69 ± 27", "unit": "µM"}, {"measurement": "IC50", "setting": "[1]; iron 55–145 nM, + 1 mM DTPA", "result": "594 ± 67", "unit": "µM"}, {"measurement": "IC50", "setting": "[1]; iron 55–145 nM, + DMPO", "result": "> 700", "unit": "µM"}, {"measurement": "IC50", "setting": "[1]; iron 55–145 nM, + SOD", "result": "66 ± 16", "unit": "µM"}, {"measurement": "IC50", "setting": "[1]; [6]", "result": "3.5 ± 0.3", "unit": "µM"}]}, {"smiles": "N[C@@H](CCC(=O)N[C@@H](CS)C(=O)NCC(=O)O)C(=O)O", "note": "[GSH, glutathione]", "values": [{"measurement": "IC50", "setting": "[1]; [5]", "result": "21200 ± 8500", "unit": "µM"}, {"measurement": "IC50", "setting": "[1]; [6]", "result": "55 ± 14", "unit": "µM"}]}, {"smiles": "NC(CCS)C(=O)O", "note": "(stereo not drawn) [HCys, homocysteine]", "values": [{"measurement": "kinact", "setting": "[2]", "result": 0.000483, "unit": "s⁻¹"}, {"measurement": "IC50", "setting": "[1]; [5]", "result": "1440 ± 370", "unit": "µM"}, {"measurement": "IC50", "setting": "[1]; [6]", "result": "37 ± 3", "unit": "µM"}]}, {"smiles": "[Na+].[SH-]", "note": "[NaSH]", "values": [{"measurement": "IC50", "setting": "[3]; cells isolated from DSS-treated mice", "result": "21.6 ± 6.2", "unit": "µM"}, {"measurement": "IC50", "setting": "[3]; cells isolated from untreated mice", "result": "25.2 ± 6.7", "unit": "µM"}, {"measurement": "IC50", "setting": "[4]; Hek 293T cells transfected with Htt", "result": "4 ± 1.5", "unit": "µM"}, {"measurement": "IC50", "setting": "[4]; Hek 293T cells transfected with pcDNA", "result": "6.5 ± 3.6", "unit": "µM"}]}]}
